Measured values published in patent US6355799B1, “Substituted benzene compounds, process for their preparation, and herbicidal and defoliant compositions containing them” (ISK Americas Incorporated, priority 1997, dated 2002).

Assays:
Type in all cases: in vivo
[1] = tested on: large crabgrass (Digitaria sanguinalis, DIGSA); experiment: Pre-emerge test, greenhouse herbicide activity screening; conditions: pre-emerge; for Pre-emerge Herbicidal Activity DIGSA: phytotoxicity rating 0-100 at 14 days after application; for phytotoxicity rating DIGSA: 14 days after application, rating scale 0-100; for Pre-emerge Herbicidal Activity DIGSA (phytotoxicity rating, scale 0-100): rated 14 days after application, 0 = no damage, 100 = complete death
Procedure, shortened: (§1)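 Rating: 0–100 visual injury, 14 DAA. Application: acetone, 187 l/ha, 15–1000 g ai/ha, flat-fan track sprayer with nozzle 40–45 cm above soil or canopy. Post-emerge runs used 0.25% v/v surfactant on 2–3 leaf plants.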

[2] = tested on: ivyleaf morningglory (Ipomoea hederacea, IPOHE); experiment: as above; conditions: pre-emerge; for Pre-emerge Herbicidal Activity IPOHE: phytotoxicity rating 0-100 at 14 days after application; for phytotoxicity rating IPOHE: 14 days after application, rating scale 0-100; for Pre-emerge Herbicidal Activity IPOHE (phytotoxicity rating, scale 0-100): rated 14 days after application, 0 = no damage, 100 = complete death
Procedure, shortened: as §1

[3] = tested on: green foxtail (Setaria viridis, SETVI); experiment: as above; conditions: pre-emerge; for Pre-emerge Herbicidal Activity SETVI: phytotoxicity rating 0-100 at 14 days after application; for phytotoxicity rating SETVI: 14 days after application, rating scale 0-100; for Pre-emerge Herbicidal Activity SETVI (phytotoxicity rating, scale 0-100): rated 14 days after application, 0 = no damage, 100 = complete death
Procedure, shortened: as §1

[4] = tested on: barnyardgrass (Echinochloa crus-galli, ECHCG); experiment: as above; conditions: pre-emerge; for Pre-emerge Herbicidal Activity ECHCG: phytotoxicity rating 0-100 at 14 days after application; for phytotoxicity rating ECHCG: 14 days after application, rating scale 0-100; for Pre-emerge Herbicidal Activity ECHCG (phytotoxicity rating, scale 0-100): rated 14 days after application, 0 = no damage, 100 = complete death
Procedure, shortened: as §1

[5] = tested on: johnsongrass (Sorghum halepense, SORHA); experiment: as above; conditions: pre-emerge; for Pre-emerge Herbicidal Activity SORHA: phytotoxicity rating 0-100 at 14 days after application; for phytotoxicity rating SORHA: 14 days after application, rating scale 0-100; for Pre-emerge Herbicidal Activity SORHA (phytotoxicity rating, scale 0-100): rated 14 days after application, 0 = no damage, 100 = complete death
Procedure, shortened: as §1

[6] = tested on: lambsquarters (Chenopodium album, CHEAL); experiment: as above; conditions: pre-emerge; for Pre-emerge Herbicidal Activity CHEAL: phytotoxicity rating 0-100 at 14 days after application; for phytotoxicity rating CHEAL: 14 days after application, rating scale 0-100; for Pre-emerge Herbicidal Activity CHEAL (phytotoxicity rating, scale 0-100): rated 14 days after application, 0 = no damage, 100 = complete death
Procedure, shortened: as §1

[7] = tested on: velvetleaf (Abutilon theophrasti, ABUTH); experiment: as above; conditions: pre-emerge; for Pre-emerge Herbicidal Activity ABUTH: phytotoxicity rating 0-100 at 14 days after application; for phytotoxicity rating ABUTH: 14 days after application, rating scale 0-100; for Pre-emerge Herbicidal Activity ABUTH (phytotoxicity rating, scale 0-100): rated 14 days after application, 0 = no damage, 100 = complete death
Procedure, shortened: as §1

[8] = tested on: sicklepod (Cassia obtusifolia, CASOB); experiment: as above; conditions: pre-emerge; for Pre-emerge Herbicidal Activity CASOB: phytotoxicity rating 0-100 at 14 days after application; for phytotoxicity rating CASOB: 14 days after application, rating scale 0-100; for Pre-emerge Herbicidal Activity CASOB (phytotoxicity rating, scale 0-100): rated 14 days after application, 0 = no damage, 100 = complete death
Procedure, shortened: as §1

[9] = tested on: upland rice (Oryza sp., var. Tebonnet, RICE); experiment: Pre-emerge test, crop safety; conditions: pre-emerge; for Pre-emerge Herbicidal Activity RICE: crop damage, phytotoxicity rating 0-100 at 14 days after application; for phytotoxicity rating RICE: 14 days after application, rating scale 0-100
Procedure, shortened: (§2)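 Visual ratings on a 0-100 scale (0 no damage, 100 all plants dead) were taken at 14 days after treatment. Rates of 15-1000 g ai/ha in acetone, 187 l/ha, were sprayed onto soil one day after planting (pre-emerge) or onto 2-3 leaf plants with 0.25% v/v surfactant (post-emerge).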

[10] = tested on: field corn (Zea mays L., var. Dekalb 535, CORN); experiment: Pre-emerge test, crop safety; conditions: pre-emerge; for Pre-emerge Herbicidal Activity CORN: crop damage, phytotoxicity rating 0-100 at 14 days after application; for phytotoxicity rating CORN: 14 days after application, rating scale 0-100
Procedure, shortened: as §2

[11] = tested on: redroot pigweed (Amaranthus retroflexus, AMARE); experiment: Pre-emerge test, greenhouse herbicide activity screening; conditions: pre-emerge; for Pre-emerge Herbicidal Activity AMARE: phytotoxicity rating 0-100 at 14 days after application; for phytotoxicity rating AMARE: 14 days after application, rating scale 0-100; for Pre-emerge Herbicidal Activity AMARE (phytotoxicity rating, scale 0-100): rated 14 days after application, 0 = no damage, 100 = complete death
Procedure, shortened: as §1

COc1c(Cl)cc(F)c(-n2c(=O)n3n(c2=O)CCCC3)c1N [9-4]
Pre-emerge Herbicidal Activity DIGSA ([1]; rate 63 g ai/ha): 0 | Pre-emerge Herbicidal Activity DIGSA ([1]; rate 250 g ai/ha): 60 | Pre-emerge Herbicidal Activity IPOHE ([2]; rate 63 g ai/ha): 10 | Pre-emerge Herbicidal Activity IPOHE ([2]; rate 250 g ai/ha): 50 | Pre-emerge Herbicidal Activity SETVI ([3]; rate 63 g ai/ha): 0 | Pre-emerge Herbicidal Activity SETVI ([3]; rate 250 g ai/ha): 70 | Pre-emerge Herbicidal Activity ECHCG ([4]; rate 63 g ai/ha): 0 | Pre-emerge Herbicidal Activity ECHCG ([4]; rate 250 g ai/ha): 10 | Pre-emerge Herbicidal Activity SORHA ([5]; rate 63 g ai/ha): 0 | Pre-emerge Herbicidal Activity SORHA ([5]; rate 250 g ai/ha): 30 | Pre-emerge Herbicidal Activity CHEAL ([6]; rate 63 g ai/ha): 30 | Pre-emerge Herbicidal Activity CHEAL ([6]; rate 250 g ai/ha): 80 | Pre-emerge Herbicidal Activity ABUTH ([7]; rate 63 g ai/ha): 90 | Pre-emerge Herbicidal Activity ABUTH ([7]; rate 250 g ai/ha): 100 | Pre-emerge Herbicidal Activity CASOB ([8]; rate 63 g ai/ha): 30 | Pre-emerge Herbicidal Activity CASOB ([8]; rate 250 g ai/ha): 60 | Pre-emerge Herbicidal Activity RICE ([9]; rate 63 g ai/ha): 0 | Pre-emerge Herbicidal Activity RICE ([9]; rate 250 g ai/ha): 10 | Pre-emerge Herbicidal Activity CORN ([10]; rate 63 g ai/ha): 0 | Pre-emerge Herbicidal Activity CORN ([10]; rate 250 g ai/ha): 0 | Pre-emerge Herbicidal Activity AMARE ([11]; rate 63 g ai/ha): 60 | Pre-emerge Herbicidal Activity AMARE ([11]; rate 250 g ai/ha): 100

COc1c(Cl)cc(F)c(-n2c(=O)n3n(c2=O)CCCC3)c1NC(C)=O [9-5]
Pre-emerge Herbicidal Activity DIGSA ([1]; rate 63 g ai/ha): 10 | Pre-emerge Herbicidal Activity DIGSA ([1]; rate 250 g ai/ha): 40 | Pre-emerge Herbicidal Activity IPOHE ([2]; rate 63 g ai/ha): 70 | Pre-emerge Herbicidal Activity IPOHE ([2]; rate 250 g ai/ha): 100 | Pre-emerge Herbicidal Activity SETVI ([3]; rate 63 g ai/ha): 20 | Pre-emerge Herbicidal Activity SETVI ([3]; rate 250 g ai/ha): 60 | Pre-emerge Herbicidal Activity ECHCG ([4]; rate 63 g ai/ha): 0 | Pre-emerge Herbicidal Activity ECHCG ([4]; rate 250 g ai/ha): 30 | Pre-emerge Herbicidal Activity SORHA ([5]; rate 63 g ai/ha): 0 | Pre-emerge Herbicidal Activity SORHA ([5]; rate 250 g ai/ha): 20 | Pre-emerge Herbicidal Activity CHEAL ([6]; rate 63 g ai/ha): 100 | Pre-emerge Herbicidal Activity CHEAL ([6]; rate 250 g ai/ha): 100 | Pre-emerge Herbicidal Activity ABUTH ([7]; rate 63 g ai/ha): 100 | Pre-emerge Herbicidal Activity ABUTH ([7]; rate 250 g ai/ha): 100 | Pre-emerge Herbicidal Activity CASOB ([8]; rate 63 g ai/ha): 10 | Pre-emerge Herbicidal Activity CASOB ([8]; rate 250 g ai/ha): 80 | Pre-emerge Herbicidal Activity RICE ([9]; rate 63 g ai/ha): 25 | Pre-emerge Herbicidal Activity RICE ([9]; rate 250 g ai/ha): 60 | Pre-emerge Herbicidal Activity CORN ([10]; rate 63 g ai/ha): 0 | Pre-emerge Herbicidal Activity CORN ([10]; rate 250 g ai/ha): 10 | Pre-emerge Herbicidal Activity AMARE ([11]; rate 63 g ai/ha): 100 | Pre-emerge Herbicidal Activity AMARE ([11]; rate 250 g ai/ha): 100

Cn1c(C(F)(F)F)cc(=O)n(-c2ccc(Cl)cc2C(=O)c2ccccc2)c1=O [14-57]
phytotoxicity rating DIGSA ([1]; 63 g ai/ha): 0 | phytotoxicity rating DIGSA ([1]; 250 g ai/ha): 20 | phytotoxicity rating IPOHE ([2]; 63 g ai/ha): 0 | phytotoxicity rating IPOHE ([2]; 250 g ai/ha): 0 | phytotoxicity rating SETVI ([3]; 63 g ai/ha): 0 | phytotoxicity rating SETVI ([3]; 250 g ai/ha): 0 | phytotoxicity rating ECHCG ([4]; 63 g ai/ha): 0 | phytotoxicity rating ECHCG ([4]; 250 g ai/ha): 0 | phytotoxicity rating SORHA ([5]; 63 g ai/ha): 0 | phytotoxicity rating SORHA ([5]; 250 g ai/ha): 0 | phytotoxicity rating CHEAL ([6]; 63 g ai/ha): 0 | phytotoxicity rating CHEAL ([6]; 250 g ai/ha): 0 | phytotoxicity rating ABUTH ([7]; 63 g ai/ha): 0 | phytotoxicity rating ABUTH ([7]; 250 g ai/ha): 0 | phytotoxicity rating CASOB ([8]; 63 g ai/ha): 0 | phytotoxicity rating CASOB ([8]; 250 g ai/ha): 0 | phytotoxicity rating RICE ([9]; 63 g ai/ha): 0 | phytotoxicity rating RICE ([9]; 250 g ai/ha): 0 | phytotoxicity rating CORN ([10]; 63 g ai/ha): 0 | phytotoxicity rating CORN ([10]; 250 g ai/ha): 0 | phytotoxicity rating AMARE ([11]; 63 g ai/ha): 0 | phytotoxicity rating AMARE ([11]; 250 g ai/ha): 0

O=c1cc(C(F)(F)F)[nH]c(=O)n1-c1c(F)cc(Cl)c(O)c1[N+](=O)[O-] [Compound 1-2, 3-(4-chloro-6-fluoro-3-hydroxy-2-nitrophenyl)-6-trifluoromethyl-2,4(1H, 3H)-pyrimidinedione]
Pre-emerge Herbicidal Activity DIGSA (phytotoxicity rating, scale 0-100) ([1]; 63 g ai/ha): 0 | Pre-emerge Herbicidal Activity DIGSA (phytotoxicity rating, scale 0-100) ([1]; 250 g ai/ha): 30 | Pre-emerge Herbicidal Activity IPOHE (phytotoxicity rating, scale 0-100) ([2]; 63 g ai/ha): 0 | Pre-emerge Herbicidal Activity IPOHE (phytotoxicity rating, scale 0-100) ([2]; 250 g ai/ha): 0 | Pre-emerge Herbicidal Activity SETVI (phytotoxicity rating, scale 0-100) ([3]; 63 g ai/ha): 20 | Pre-emerge Herbicidal Activity SETVI (phytotoxicity rating, scale 0-100) ([3]; 250 g ai/ha): 0 | Pre-emerge Herbicidal Activity ECHCG (phytotoxicity rating, scale 0-100) ([4]; 63 g ai/ha): 0 | Pre-emerge Herbicidal Activity ECHCG (phytotoxicity rating, scale 0-100) ([4]; 250 g ai/ha): 0 | Pre-emerge Herbicidal Activity SORHA (phytotoxicity rating, scale 0-100) ([5]; 63 g ai/ha): 0 | Pre-emerge Herbicidal Activity SORHA (phytotoxicity rating, scale 0-100) ([5]; 250 g ai/ha): 0 | Pre-emerge Herbicidal Activity CHEAL (phytotoxicity rating, scale 0-100) ([6]; 63 g ai/ha): 0 | Pre-emerge Herbicidal Activity CHEAL (phytotoxicity rating, scale 0-100) ([6]; 250 g ai/ha): 0 | Pre-emerge Herbicidal Activity ABUTH (phytotoxicity rating, scale 0-100) ([7]; 63 g ai/ha): 50 | Pre-emerge Herbicidal Activity ABUTH (phytotoxicity rating, scale 0-100) ([7]; 250 g ai/ha): 10 | Pre-emerge Herbicidal Activity CASOB (phytotoxicity rating, scale 0-100) ([8]; 63 g ai/ha): 90 | Pre-emerge Herbicidal Activity CASOB (phytotoxicity rating, scale 0-100) ([8]; 250 g ai/ha): 100 | Pre-emerge Herbicidal Activity AMARE (phytotoxicity rating, scale 0-100) ([11]; 63 g ai/ha): 0 | Pre-emerge Herbicidal Activity AMARE (phytotoxicity rating, scale 0-100) ([11]; 250 g ai/ha): 0
